From patent US7297353B2, “Use of anemonin for treating aseptic inflammations” (priority 2000, dated 2007)
“Also recorded” adds a separate entry of the source. Where two headings read alike, the source gives them in different places.

Tests used:
[1] = test system: T-lymphocytes from the whole spleen of mice; experiment: ConA-induced responsive proliferation of T-lymphocytes ([3H] thymidine); type: cell-based; conditions: for Proliferation of T-lymphocytes ConA stimulation Average of CPM values: ConA at 51 μg/ml, 48 hours
Method: 5.2.1. Mice were sacrificed by removing spondyle, spleen was cut off in a sterile condition and then ground to obtain single cell suspension. After erythrocytes were got rid of the remained cells were diluted to […] with RPMI-1640 culture solution containing 10% fetal bovine serum.
5.2.2. 200 μl solution in total volume (including 100 μl the cell suspension, 50 μl sample and 50 μl ConA or LPS) was dispensed on 96-well plate.
50 μl culture solution containing 10% fetal bovine serum, instead of 50 μl sample, was added as negative control, in which the total volume was also 200 μl.
5.2.3. The cell was cultured at 37° C. and under 5% CO2 in incubator for 48 hours, and [^3H] thymidine (1.9×10^4 Bq) was added to the plate at 25 μl/well 12 hours before the end of culture.
5.2.4. The culture was continued. The plates were then stored at −20° C. in refrigeratory after the culture. The thawed cells were collected to fiberglass membrane (Nitrocellose membrane) with cell collector when detecting. After the addition of Scintillation solution, the quantity of [^3H] thymidine incorporated into DNA of cells was detected by Beta counter (MicroBeta Trilux, PerkinElmer LifeSciences). The proliferation of lymphocytes was indicated by cpm value.
Effect of the medicament on ConA-induced responsive proliferation of T-lymphocytes was examined, said T-lymphocytes were from the whole spleen of mice. ConA at 51 μg/ml final concentration was used as the stimulator to induce responsive proliferation of T-lymphocytes from the whole spleen of ICR homogenous mice (cultured in vitro for 48 hours).

IFN-γ = experiment: Cytokine production from splenocytes, Sac stimulation, IFN-γ (ELISA); type: cell-based, murine; conditions: 24 h
Method: For splenocyte cytokine production assay, 5×10^6 cells per well were inoculated into a 24-well tissue culture plate with ConA (5 mg/L) or Sac (1:10000) stimulation. Different concentrations of Anemonin were added in a final volume of 2 ml. Cells were incubated at 37° C., 5% CO2 for 24 h and supernatants were harvested, IFN-γ, IL-10, IL12 (p40) and IL-2 in supernatants were measured by the sandwich enzyme-linked immunosorbent assay (ELISA) as specified by the manufacturer (BD Bioscience pharmingen, US). Concentrations of the cytokine productions were calculated based on standard curves obtained from serial dilutions of murine cytokines (r IFN-γ, rIL-10, rIL12, rIL-2). As shown in Tables C-3 and C-4, high-dose Anemonin (1-100 μg/ml) inhibited all kinds of cytokine release induced by ConA or Sac.

In the case of `O=C1C=CC2(CCC23C=CC(=O)O3)O1` (stereo not shown) [Anemonin, anemonin], the “Proliferation of T-lymphocytes ConA stimulation Average of CPM values” (from here on “Proliferation … of CPM values”) ([1]; 0.001 μg/ml, Table B-4) is reported as 15466 CPM, the “Proliferation … of CPM values” ([1]; 0.01 μg/ml, Table B-4) is reported as 19386 CPM and the “Proliferation … of CPM values” ([1]; 0.1 μg/ml, Table B-4) is reported as 15284 CPM. The “Proliferation … of CPM values” ([1]; 1 μg/ml, Table B-3) was 8650 CPM, the “Proliferation … of CPM values” ([1]; 1 μg/ml, Table B-4) was 8438 CPM and the “Proliferation … of CPM values” ([1]; 10 μg/ml, Table B-3) was 171 CPM. For the same compound, the “Proliferation … of CPM values” ([1]; 10 μg/ml, Table B-4) was 46 CPM, the “Proliferation … of CPM values” ([1]; 100 μg/ml, Table B-3) was 160 CPM and the “Proliferation … of CPM values” ([1]; 100 μg/ml, Table B-4) was 155 CPM. The inhibition at 0.001 µg/mL ([1]; Mus musculus, T-lymphocyte, 0.001 μg/ml, ConA stimulation, Table B-4, read-out: General assess of activity Enhancement/Inhibition) was 11%, the inhibition at 0.01 µg/mL ([1]; Mus musculus, T-lymphocyte, 0.01 μg/ml, ConA stimulation, Table B-4, read-out: General assess of activity Enhancement/Inhibition) was -11% and the inhibition at 0.1 µg/mL ([1]; Mus musculus, T-lymphocyte, 0.1 μg/ml, ConA stimulation, Table B-4, read-out: General assess of activity Enhancement/Inhibition) was 13%. For the same compound, the inhibition at 1 µg/mL ([1]; Mus musculus, T-lymphocyte, 1 μg/ml, ConA stimulation, Table B-3, read-out: General assess of activity Enhancement/Inhibition) was 47%, the inhibition at 1 µg/mL ([1]; Mus musculus, T-lymphocyte, 1 μg/ml, ConA stimulation, Table B-4, read-out: General assess of activity Enhancement/Inhibition) was 52% and the inhibition at 10 µg/mL ([1]; Mus musculus, T-lymphocyte, 10 μg/ml, ConA stimulation, Table B-3, read-out: General assess of activity Enhancement/Inhibition) was 99%. The inhibition at 10 µg/mL ([1]; Mus musculus, T-lymphocyte, 10 μg/ml, ConA stimulation, Table B-4, read-out: General assess of activity Enhancement/Inhibition) was 100%, the inhibition at 100 µg/mL ([1]; Mus musculus, T-lymphocyte, 100 μg/ml, ConA stimulation, Table B-3, read-out: General assess of activity Enhancement/Inhibition) was 99% and the inhibition at 100 µg/mL ([1]; Mus musculus, T-lymphocyte, 100 μg/ml, ConA stimulation, Table B-4, read-out: General assess of activity Enhancement/Inhibition) was 99%. For the same compound, the “inhibition of ConA-induced responsive proliferation of lymphocytes” value ([1]; final concentration range from 0.1 μg/ml to 100 μg/ml) was “remarkably inhibited; also recorded: sharply inhibited”, the “IFN-γ” value (IFN-γ; 0.001 μg/ml) was 237 ± 3 pg/mL and the “IFN-γ” value (IFN-γ; 0.01 μg/ml) was 230 ± 23 pg/mL. The “IFN-γ” value (IFN-γ; 0.1 μg/ml) was 143 ± 0 pg/mL, the “IFN-γ” value (IFN-γ; 1 μg/ml) was 95 ± 2 pg/mL and the “IFN-γ” value (IFN-γ; 10 μg/ml) was 98 ± 7 pg/mL. The “IFN-γ” value (IFN-γ; 100 μg/ml) was 89 ± 2 pg/mL.
